Measurements published in patent US11389429B2, “Use of carbamate compound for preventing, alleviating or treating myotonia” (SK BIOPHARMACEUTICALS CO., LTD., priority 2017, dated 2022).

Test system: myotonia induced by anthracene-9-carboxylic acid (9-AC) in Sprague-Dawley rats
Experiment: Myotonia induction model by drug (9-AC) treatment, righting reflex test
Assay type: in vivo, rat
Design: Average Righting reflex time (TRR): unit not given here
Settings: for Average Righting reflex time (TRR): 9-AC given 20 minutes later
From the text: The efficacy for myotonia of the compounds of the above Formula 1 can be confirmed by the use of known models. For example, the efficacy of the compounds of the above Formula 1 may be evaluated in a myotonia model caused by anthracene-9-carboxylic acid (9-AC). Anthracene-9-carboxylic acid can cause myotonic conditions by blocking the chloride channel-1 of muscle cells. Myotonic conditions are induced by intraperitoneal injection once to experimental animals (rats), and can be evaluated by measuring the righting reflex time. Righting reflex is a reflex behavior in which the animal's body returns from an abnormal position to a normal position, and the degree of myotonia can be evaluated by measurement of righting reflex behavior due to abnormality of muscle tension/relaxation after 9-AC treatment. Specifically, the degree of spasticity is evaluated by measuring the time that it takes for the four feet of the experimental animal to land normally when the experimental animal is turned upside down and the posture is straightened (time of righting reflex, TRR).
In the experimental animal model of myotonia induction by drug (9-AC) treatment, it was reported that the time to return to normal posture after righting reflex was delayed when measuring the rat's spasticity conditions using righting reflex (Desaphy et al., 2013, Neuropharmacology, 65: 21-27).
As an experimental model, Sprague-Dawley rats (350-400 g, 10 weeks old, a total of 36 males) were used (Orient Bio Inc.). The drug anthracene-9-carboxylic acid (9-AC) used to induce myotonia is a drug that inhibits chloride channel-1 of skeletal muscle cells and induces hyperexcitation of muscle cells. The control group (30% PEG300) or test compound was intraperitoneally administered to the rat once in each dose (15, 20 mg/kg). Test compounds were diluted in 30% PEG300 solution to a final dose of 5 ml/kg. After 20 minutes of administration of control group or test compound, 0.3% NaHCO3 solution containing 6 mg/ml of 9-AC was intraperitoneally administered by 10 ml/kg. After administration of 9-AC, righting reflex tests were performed at 30 minutes and 1 hour, respectively, and the time to return to normal posture (time of righting reflex, TRR) was measured.
Statistical analysis was used for the one-way ANOVA (1-way ANOVA) and Tukey's multiple comparison test, and outliers were excluded through the ROUT outlier analysis test (Q=1%) (in the 30-minute test, excluding each one in the control group and the 20 mg/kg treatment group; in the 1-hour test, excluding one in the 20 mg/kg treatment group). The results were derived from three repeated experiments.

SMILES: NC(=O)O[C@@H](Cn1ncnn1)c1ccccc1Cl [Test compound, carbamic acid (R)-1-(2-chlorophenyl)-2-tetrazol-2-yl-ethyl ester]
- Average Righting reflex time (TRR) (15 mg/kg intraperitoneal, measured 30 minutes after 9-AC, n = 9): 2.282 ± 0.304
- Average Righting reflex time (TRR) (15 mg/kg intraperitoneal, measured 1 hour after 9-AC, n = 9): 4.978 ± 0.944
- Average Righting reflex time (TRR) (20 mg/kg intraperitoneal, measured 30 minutes after 9-AC, n = 8): 1.85 ± 0.266
- Average Righting reflex time (TRR) (20 mg/kg intraperitoneal, measured 1 hour after 9-AC, n = 8): 2.515 ± 0.328
- Time to return to normal posture compared to the control group (statistical significance) (20 mg/kg, at both 30 minutes and 1 hour after 9-AC, P<0.05, one-way ANOVA and Tukey's test): significant time reduction effect
- Time to return to normal posture compared to the control group in righting reflex test (15 and 20 mg/kg, 30 minutes and 1 hour after spasticity was induced): decrease in time to return to normal posture
